In patent US7402691B2, “Malononitrile compounds and their use as pesticides” (Sumitomo Chemical Company, Limited, priority 2001, dated 2008):

What was measured:
Format in all cases: in vivo
[1] = tested on: Eysarcoris lewisi; experiment: Pesticidal test against Eysarcoris lewisi, treated peanut seeds (Test Example 4); settings: 168 h, peanut seeds immersed 1 minute, adults, 7th day after release, read-out: rate of dead or moribund pests
Protocol: Then, 3 to 5 seeds of peanut were immersed in the test liquid, which had been prepared as described above, for 1 minute. After the test liquid treated the seeds of peanut was dried with a paper towel, a filter paper moistened with 1 ml of water was placed on a bottom of polyethylene cup and then the seeds of peanut was placed on it. Six to eight adults of Eysarcoris lewisi were set free in the polyethylene cup, which was then kept covered and left in a greenhouse at 25° C. On the 7th day after the release of Eysarcoris lewisi, the number of dead pests and moribund pests was examined.

[2] = tested on: Musca domestica; experiment: Pesticidal test against Musca domestica, filter paper with sucrose bait (Test Example 6); settings: 500 ppm, 0.7 ml on filter paper, ten female adults, after 24 hours, read-out: mortality
Protocol: Ten female adults of Musca domestics (house fly) were set free in the polyethylene cup, which was then kept covered. After 24 hours, their survival was examined to determine the mortality.

[3] = tested on: Leptinotarsa decemlineata; experiment: Pesticidal test against Leptinotarsa decemlineata, eggplant leaf dip (Test Example 5); settings: foliar, 120 h, eggplant leaf immersed 1 minute, second-instar larvae, 5th day after release, read-out: rate of dead or moribund pests
Protocol: A leaf of eggplant was immersed in the test liquid, which had been prepared as described above, for 1 minute. After the test liquid treated the leaf of eggplant was dried with a paper towel, the leaf of eggplant was placed in a polyethylene cup of 3 cm in diameter. One second-instar larvae of Leptinotarsa decemlineata (Colorado potato beetle) were set free in the polyethylene cup, which was then kept covered and left in a greenhouse at 25° C. This test was done ten times for one compound. On the 5th day after the release of Leptinotarsa decemlineata, the number of dead pests and moribund pests was examined.

[4] = tested on: Ctenocephalides felis; experiment: Pesticidal test against Ctenocephalides felis, treated filter paper (Test Example 9); settings: 200 mg/m^2 on filter paper (acetone solution), twenty adults, after 24 hours
Protocol: Each of the compound 8, 15, 19, 21 and 34 was dissolved in acetone to give a 0.2 ml solution of 0.114% w/w, which was uniformly treated on a filter paper having 3.8cm in diameter, and air-dried. The amount of active ingredient was 200 mg/m^2. The filter paper was filled in a lid of a 200 ml glass bottle. Twenty adult Ctenocephalides felis (cat flea) were released in the glass bottle, which was followed by covering with the lid. The glass bottle was upset for making the fleas contact with the filter paper. After 24 hours, the mortality was examined.

Compound	pest or weed control at 100 ppm [1]	mortality at 500 ppm [2]	pest or weed control at 1.6 ppm [3]	mortality at 200 mg/m2 [4]
N#CC(C#N)(CCC(F)(F)C(F)(F)F)Cc1ccc(C(F)(F)F)cc1 [Compound 8, 2-(3,3,4,4,4-pentafluorobutyl)-2-(4-(trifluoromethyl)benzyl)malononitrile]	100%	100%	> 80%	100%
N#CC(C#N)(CCC(F)(F)F)Cc1ccc(Cl)cc1 [Compound 15, 2-(4-chlorobenzyl)-2-(3,3,3-trifluoropropyl)malononitrile]		100%	> 80%	100%
N#CC(C#N)(CCC(F)(F)F)Cc1ccc(Cl)c(Cl)c1 [Compound 21, 2-(3,4-dichlorobenzyl)-2-(3,3,3-trifluoropropyl)malononitrile]	100%	100%	> 80%	100%
CSc1ccc(CC(C#N)(C#N)CCC(F)(F)F)cc1 [Compound 34, 2-(4-(methylthio)benzyl)-2-(3,3,3-trifluoropropyl)malononitrile]		100%		100%
